Data on 4 compounds can be found in BindingDB's records for patent US12565504 (Biogen Ma, 2026).

SMILES strings stand for the structures.

In this test the target is T1, Protein O-GlcNAcase (Homo sapiens, UniProt O60502).
T1 sequence (O60502 whole entry): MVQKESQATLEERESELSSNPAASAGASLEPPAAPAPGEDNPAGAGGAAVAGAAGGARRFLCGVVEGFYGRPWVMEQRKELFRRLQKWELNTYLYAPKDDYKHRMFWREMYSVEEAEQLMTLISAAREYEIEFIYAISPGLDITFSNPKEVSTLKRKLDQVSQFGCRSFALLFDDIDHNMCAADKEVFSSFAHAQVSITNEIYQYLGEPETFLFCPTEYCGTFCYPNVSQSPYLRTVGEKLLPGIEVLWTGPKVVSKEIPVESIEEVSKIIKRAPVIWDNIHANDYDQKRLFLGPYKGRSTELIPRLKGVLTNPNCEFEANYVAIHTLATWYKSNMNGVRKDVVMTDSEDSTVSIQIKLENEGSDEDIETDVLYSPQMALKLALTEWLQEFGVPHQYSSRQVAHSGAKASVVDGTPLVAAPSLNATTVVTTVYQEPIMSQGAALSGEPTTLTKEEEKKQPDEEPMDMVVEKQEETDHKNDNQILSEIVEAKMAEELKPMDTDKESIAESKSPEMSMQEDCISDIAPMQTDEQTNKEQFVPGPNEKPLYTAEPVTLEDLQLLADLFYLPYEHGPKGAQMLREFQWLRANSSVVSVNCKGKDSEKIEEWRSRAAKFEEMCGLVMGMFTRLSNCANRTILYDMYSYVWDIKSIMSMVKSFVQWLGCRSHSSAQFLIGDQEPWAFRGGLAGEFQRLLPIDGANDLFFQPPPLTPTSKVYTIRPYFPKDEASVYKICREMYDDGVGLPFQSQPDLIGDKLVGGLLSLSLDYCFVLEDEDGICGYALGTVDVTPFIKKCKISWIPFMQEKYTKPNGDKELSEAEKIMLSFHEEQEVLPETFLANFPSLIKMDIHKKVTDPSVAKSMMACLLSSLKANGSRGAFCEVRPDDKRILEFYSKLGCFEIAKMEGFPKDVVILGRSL
Kind of test: OGA Enzyme Inhibition Biochemical Assay. Here is the method: Recombinant full length human OGA enzyme was purchased from Origene. 4-MUGlcNAc substrate was purchased from Sigma. All other reagents were purchased from Sigma or Fisher. Assay buffer consists of the McIlvaine buffer system, pH 6.4 (0.2M Na2HPO4 mixed with 0.1M citric acid) and 0.01% BSA. […] Reactions were incubated for 90 minutes at room temperature and quenched with 40 μl of 3M glycine, pH 10 and read on a Perkin Elmer Envision plate reader (Ex: 355 nm/Em: 460 nm). Compounds were tested with a 10-point dose-response starting from 20 μM with a 4-fold dilution. Data was fit using GraphPad Prism using a 4-parameter fit with variable slope.
One may read the IC50 as the concentration needed to halve the response being measured. High values mean weaker potency in that assay, low ones greater potency in that assay. Take `COc1nccc2c1COC21C[C@H](C)N(Cc2sc(NC(C)=O)nc2F)C1` (some centres undefined) [US12565504, Example 77]: half-maximal inhibition (IC50) required 4 nM. `COc1cc2c(cn1)[C@]1(C[C@H](C)N(Cc3sc(NC(C)=O)nc3F)C1)OC2` (single isomer, unassigned) [US12565504, Example 75-a] showed an IC50 of 10 nM. For `COc1cc2c(cn1)[C@@]1(C[C@H](C)N(Cc3sc(NC(C)=O)nc3F)C1)OC2` (single isomer, unassigned) [US12565504, Example 75-b], the midpoint of inhibition, the IC50, lay at 47 nM. As to `CC(=O)Nc1nc(F)c(CN2CC3(C[C@@H]2C)OCc2ncccc23)s1` (some centres undefined) [US12565504, Example 79], the IC50 was 10 nM.
